The text below walks through data of patent publication US20240293558A1, “KRAS INHIBITOR CONJUGATES” (Erasca, Inc., priority 2021, published 2024).

The target in one experiment is T1, KRAS (WT) (Homo sapiens, UniProt P01116).
T1 construct: Biotinylated KRAS protein amino acids 1-169 (produced at Erasca); made in house
The experiment in a line: In-vitro RAS-RAF binding assay (RRB), HTRF/FRET. In kind it is biochemical. The conditions noted are these: read-out: Inhibition of RAS-RAF Binding (in-vitro) KRAS (WT) IC50. The gist of the method:
(§1)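 Biotinylated KRAS 1-169 (streptavidin-terbium donor, 30 nM) and GST-cRAF RBD (anti-GST d2 acceptor, 30 nM) in HEPES pH 7.5, NaCl, MgCl2, DTT buffer. After compound incubation, SOS1 catalytic domain plus GTPgS drive 60 min nucleotide exchange. HTRF FRET read at equilibrium, in duplicate.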
A general note: TR-FRET usually uses a lanthanide donor and a delayed reading to cut background.

The target of experiment [1] is T2, KRas G12D fused to HiBiT peptide (Homo sapiens, UniProt P01116, G12D).
T2 construct: endogenous in cells; host or cells: AsPC-1 HiBiT knock-in single clone (Cas9 RNP + ssODN)
The experiment in a line: ASPC-1 HiBit assay to determine G12D degradation. In kind it is cell-based. The conditions noted are these: AsPC-1 HiBiT cells, 24-hour incubation; read-out: ASPC-1 HiBit DC50 (C). Summed up: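 Homozygous AsPC-1 clone with N-terminal HiBiT knock-in on endogenous KRas G12D, 24 h compound exposure, top dose 10 μM, 3-fold, 10 points, 1% DMSO. Lytic HiBiT luminescence normalised to DMSO and inhibitor controls gives % degradation; DC50 from 4-parameter fit after hook-effect points removed.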
Background: HiBiT is a short tag that completes a luciferase, so light tracks the accessible tagged protein.

Another experiment concerns the target KRAS G12D (Homo sapiens, UniProt P01116, G12D). In words: In-vitro RAS-RAF binding assay (RRB), HTRF/FRET. In kind it is biochemical. The note with it: read-out: Inhibition of RAS-RAF Binding (in-vitro) KRAS (G12D) IC50. Also noted: Biotinylated KRAS protein amino acids 1-169 (produced at Erasca); made in house. Summed up: as §1
Where [2] appears, read: Table 2, average of multiple runs of each compound.

Where two headings read alike, the source gives them in different places. Where only a bound is given, the exact number is not on record here.

T2 sequence (P01116 1-188 isoform P01116-2 G12D): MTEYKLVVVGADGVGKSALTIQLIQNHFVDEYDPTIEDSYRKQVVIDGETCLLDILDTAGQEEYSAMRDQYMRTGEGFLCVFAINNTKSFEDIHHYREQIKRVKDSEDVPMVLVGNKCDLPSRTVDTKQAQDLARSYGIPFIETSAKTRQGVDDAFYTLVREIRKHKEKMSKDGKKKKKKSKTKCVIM
Sequence of KRAS G12D (P01116 1-169 isoform P01116-2 G12D): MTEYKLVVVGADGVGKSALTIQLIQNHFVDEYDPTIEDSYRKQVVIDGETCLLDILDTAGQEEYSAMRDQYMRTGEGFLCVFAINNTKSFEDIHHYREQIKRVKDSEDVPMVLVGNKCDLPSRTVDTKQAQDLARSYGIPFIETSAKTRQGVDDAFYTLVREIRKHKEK
T1 sequence (P01116 1-169 isoform P01116-2): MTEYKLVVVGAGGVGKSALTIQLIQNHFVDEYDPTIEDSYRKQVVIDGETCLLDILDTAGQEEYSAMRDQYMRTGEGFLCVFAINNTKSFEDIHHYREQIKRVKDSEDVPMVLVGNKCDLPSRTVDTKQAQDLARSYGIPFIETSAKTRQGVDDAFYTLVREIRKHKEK

In general, IC50 refers to the concentration needed to halve the response being measured. One may read the DC50 as the concentration at which degradation of the target reaches its halfway point. For `C#Cc1c(F)ccc2cc(O)cc(-c3ncc4c(N5CC6CCC(C5)N6)nc(OCCN5CCC(COc6cc([C@H](C(=O)N7C[C@H](O)C[C@H]7C(=O)N[C@@H](C)c7ccc(-c8c(F)cccc8F)cc7)C(C)C)on6)CC5)nc4c3F)c12` [Example 15, (2S,4R)-1-((2R)-2-(3-((1-(2-((4-(3,8-diazabicyclo[3.2.1]octan-3-yl)-7-(8-ethynyl-7-fluoro-3-hydroxynaphthalen-1-yl)-8-fluoropyrido[4,3-d]pyrimidin-2-yl)oxy)ethyl)piperidin-4-yl)methoxy)isoxazol-5-yl)-3-methylbutanoyl)-N—((S)-1-(2′,6′-difluoro-[1,1′-biphenyl]-4-yl)ethyl)-4-hydroxypyrrolidine-2-carboxamide], the IC50 amounted to 1320 nM on KRAS (WT) (setting [2]) and 12.7 nM on KRAS G12D (setting [2]). In addition, the 50% degradation concentration (DC50) in experiment [1] turned out to be 112 nM.

`C[C@H](NC(=O)[C@@H]1C[C@@H](O)CN1C(=O)[C@@H](NC(=O)CCOCCCN1CCC[C@H]1COc1nc(N2CC3CCC(C2)N3)c2cc(C(F)(F)F)c(-c3ccc(F)c4sc(N)c(C#N)c34)c(F)c2n1)C(C)(C)C)c1ccc(-c2c(F)ccc(F)c2F)cc1` [Example 93, (2S,4R)-1-((2S)-2-(3-(3-((2S)-2-((((7S)-7-(2-amino-3-cyano-7-fluorobenzo [b]thiophen-4-yl)-4-(3,8-diazabicyclo [3.2.1]octan-3-yl)-8-fluoro-6-(trifluoromethyl)quinazolin-2-yl)oxy)methyl)pyrrolidin-1-yl)propoxy)propanamido)-3,3-dimethylbutanoyl)-4-hydroxy-N—((S)-1-(2′,3′,6′-trifluoro-[1,1′-biphenyl]-4-yl)ethyl)pyrrolidine-2-carboxamide]: the results for the half-inhibitory concentration (IC50) at KRAS (WT) (setting [2]) and at KRAS G12D (setting [2]) were 54 nM and 9.1 nM, respectively. In experiment [1], the DC50 turned out to be 34 nM.

As to `CC(C)[C@@H](C(=O)N1C[C@H](O)C[C@H]1C(=O)N[C@@H](C)c1ccc(-c2c(F)cc(F)cc2F)cc1)c1cc(N2CC3(CCN(CCOc4nc(N5CC6CCC(C5)N6)c5cc(Cl)c(-c6ccc(F)c7sc(N)c(C#N)c67)c(F)c5n4)CC3)C2)no1` [Example 68, (2S,4R)-1-((2R)-2-(3-(7-(2-((7-(2-amino-3-cyano-7-fluorobenzo[b]thiophen-4-yl)-4-(3,8-diazabicyclo[3.2.1]octan-3-yl)-6-chloro-8-fluoroquinazolin-2-yl)oxy)ethyl)-2,7-diazaspiro[3.5]nonan-2-yl)isoxazol-5-yl)-3-methylbutanoyl)-4-hydroxy-N-((S)-1-(2′,4′,6′-trifluoro-[1,1′-biphenyl]-4-yl)ethyl)pyrrolidine-2-carboxamide], the IC50 on KRAS (WT) (setting [2]) is greater than 10000 nM; at KRAS G12D (setting [2]), 19.3 nM. Besides, in experiment [1], the DC50 was determined as 1280 nM.

Turning to `C#Cc1c(F)ccc2cc(O)cc(-c3ncc4c(N5CC6CCC(C5)N6)nc(OC[C@@H]5CCCN5CCCOCCC(=O)N[C@H](C(=O)N5C[C@H](O)C[C@H]5C(=O)N[C@@H](C)c5ccc(-c6scnc6C)cc5)C(C)(C)C)nc4c3F)c12` [Example 13, (2S,4R)-1-[(2S)-2-[3-[3-[(2S)-2-[[4-(3,8-diazabicyclo[3.2.1]octan-3-yl)-7-(8-ethynyl-7-fluoro-3-hydroxy-1-naphthyl)-8-fluoro-pyrido[4,3-d]pyrimidin-2-yl]oxymethyl]pyrrolidin-1-yl]propoxy]propanoylamino]-3,3-dimethyl-butanoyl]-4-hydroxy-N-[(1S)-1-[4-(4-methylthiazol-5-yl)phenyl]ethyl]pyrrolidine-2-carboxamide], the concentration for half-maximal inhibition (IC50) on KRAS (WT) (Table 1) was found to be 49 nM; at KRAS (WT) (setting [2]), 49.1 nM; at KRAS G12D (Table 1), 13.6 nM; on KRAS G12D (setting [2]), 13.6 nM. The 50% degradation concentration (DC50) in experiment [1] was 444 nM.

With `CC(C)[C@@H](C(=O)N1C[C@H](O)C[C@H]1C(=O)N[C@@H](C)c1ccc(-c2c(F)cc(F)cc2F)cc1)c1cc(OCC2(F)CCN(CCOc3nc(N4CC5CCC(C4)N5)c4cc(Cl)c(-c5ccc(F)c6sc(N)c(C#N)c56)c(F)c4n3)CC2)no1` [Example 69, (2S,4R)-1-((2R)-2-(3-((1-(2-((7-(2-amino-3-cyano-7-fluorobenzo[b]thiophen-4-yl)-4-(3,8-diazabicyclo[3.2.1]octan-3-yl)-6-chloro-8-fluoroquinazolin-2-yl)oxy)ethyl)-4-fluoropiperidin-4-yl)methoxy)isoxazol-5-yl)-3-methylbutanoyl)-4-hydroxy-N-((S)-1-(2′,4′,6′-trifluoro-[1,1′-biphenyl]-4-yl)ethyl)pyrrolidine-2-carboxamide], the IC50 on KRAS (WT) (setting [2]) is greater than 10000 nM; at KRAS G12D (setting [2]) it was 35.2 nM. Besides, the DC50 in experiment [1] was 525 nM.

Turning to `C[C@H](NC(=O)[C@@H]1C[C@@H](O)CN1C(=O)[C@@H](NC(=O)CCOCCCN1CCC[C@H]1COc1nc(N2CC3CCC(C2)N3)c2cc(C(F)(F)F)c(-c3ccc(F)c4sc(N)c(C#N)c34)c(F)c2n1)C(C)(C)C)c1ccc(-c2c(F)cc(F)cc2F)cc1` [Example 92, (2S,4R)-1-((2S)-2-(3-(3-((2S)-2-((((7S)-7-(2-amino-3-cyano-7-fluorobenzo[b]thiophen-4-yl)-4-(3,8-diazabicyclo[3.2.1]octan-3-yl)-8-fluoro-6-(trifluoromethyl)quinazolin-2-yl)oxy)methyl)pyrrolidin-1-yl)propoxy)propanamido)-3,3-dimethylbutanoyl)-4-hydroxy-N—((S)-1-(2′,4′,6′-trifluoro-[1,1′-biphenyl]-4-yl)ethyl)pyrrolidine-2-carboxamide], the 50% inhibitory concentration (IC50) at KRAS (WT) (setting [2]) was 52 nM; at KRAS G12D (setting [2]) it was 8.9 nM. For the same compound, the DC50 in experiment [1] was 49 nM.

`CC(C)[C@H](C(=O)N1C[C@H](O)C[C@H]1C(=O)N[C@@H](C)c1ccc(-c2c(F)cc(F)cc2F)cc1)c1cc(N2CC3(CCN(CCOc4nc(N5CC6CCC(C5)N6)c5cc(Cl)c(-c6ccc(F)c7sc(N)c(C#N)c67)c(F)c5n4)CC3)C2)no1` [Example 67, (2S,4R)-1-((2S)-2-(3-(7-(2-((7-(2-amino-3-cyano-7-fluorobenzo[b]thiophen-4-yl)-4-(3,8-diazabicyclo[3.2.1]octan-3-yl)-6-chloro-8-fluoroquinazolin-2-yl)oxy)ethyl)-2,7-diazaspiro[3.5]nonan-2-yl)isoxazol-5-yl)-3-methylbutanoyl)-4-hydroxy-N-((S)-1-(2′,4′,6′-trifluoro-[1,1′-biphenyl]-4-yl)ethyl)pyrrolidine-2-carboxamide]: the IC50 was found to be 5000 nM at KRAS (WT) (setting [2]) and 20 nM at KRAS G12D (setting [2]). In experiment [1], the 50% degradation concentration (DC50) was no less than 10000 nM.

Take `CC(C)[C@@H](C(=O)N1C[C@H](O)C[C@H]1C(=O)N[C@@H](C)c1ccc(-c2c(F)cc(F)cc2F)cc1)c1cc(OCC2CCN(CCOc3nc(N4CC5CCC(C4)N5)c4cc(Cl)c(-c5ccc(F)c6sc(N)c(C#N)c56)c(F)c4n3)CC2)no1` [Example 71, (2S,4R)-1-((2R)-2-(3-((1-(2-((7-(2-amino-3-cyano-7-fluorobenzo[b]thiophen-4-yl)-4-(3,8-diazabicyclo[3.2.1]octan-3-yl)-6-chloro-8-fluoroquinazolin-2-yl)oxy)ethyl)piperidin-4-yl)methoxy)isoxazol-5-yl)-3-methylbutanoyl)-4-hydroxy-N-((S)-1-(2′,4′,6′-trifluoro-[1,1′-biphenyl]-4-yl)ethyl)pyrrolidine-2-carboxamide]: the IC50 at KRAS (WT) (setting [2]) was greater than 10000 nM; at KRAS G12D (setting [2]), 28 nM. Further, in experiment [1], the DC50 worked out at 582 nM.

Turning to `CC(C)[C@@H](C(=O)N1C[C@H](O)C[C@H]1C(=O)N[C@@H](C)c1ccc(-c2c(F)cc(F)cc2F)cc1)c1cc(OCC2CCN(CCOc3nc(N4CC5CCC(C4)N5)c4cc(C(F)(F)F)c(-c5ccc(F)c6sc(N)c(C#N)c56)c(F)c4n3)CC2)no1` [Example 78, (2S,4R)-1-((2R)-2-(3-((1-(2-((7-(2-amino-3-cyano-7-fluorobenzo[b]thiophen-4-yl)-4-(3,8-diazabicyclo[3.2.1]octan-3-yl)-8-fluoro-6-(trifluoromethyl)quinazolin-2-yl)oxy)ethyl)piperidin-4-yl)methoxy)isoxazol-5-yl)-3-methylbutanoyl)-4-hydroxy-N-((S)-1-(2′,4′,6′-trifluoro-[1,1′-biphenyl]-4-yl)ethyl)pyrrolidine-2-carboxamide], the concentration for half-maximal inhibition (IC50) at KRAS (WT) (setting [2]) was 1670 nM; at KRAS G12D (setting [2]) it was 25.5 nM. Also, the 50% degradation concentration (DC50) in experiment [1] was determined as 294 nM.

For `C#Cc1c(F)ccc2cc(O)cc(-c3ncc4c(N5CC6CCC(C5)N6)nc(OC[C@@H]5CCCN5CCCOCCC(=O)N[C@H](C(=O)N5C[C@H](O)C[C@H]5C(=O)N[C@@H](C)c5ccc(-c6c(F)cc(F)cc6F)cc5)C(C)(C)C)nc4c3F)c12` [Example 49, (2S,4R)-1-((2S)-2-(3-(3-((2S)-2-(((4-(3,8-diazabicyclo[3.2.1]octan-3-yl)-7-(8-ethynyl-7-fluoro-3-hydroxynaphthalen-1-yl)-8-fluoropyrido[4,3-d]pyrimidin-2-yl)oxy)methyl)pyrrolidin-1-yl)propoxy)propanamido)-3,3-dimethylbutanoyl)-4-hydroxy-N-((S)-1-(2′,4′,6′-trifluoro-[1,1′-biphenyl]-4-yl)ethyl)pyrrolidine-2-carboxamide], the IC50 was 24.9 nM at KRAS (WT) (setting [2]) and 7.43 nM on KRAS G12D (setting [2]). For the same compound, the DC50 in experiment [1] came to 324 nM.
